The term EC50 denotes the concentration at which the effect is half-maximal. What is called Kd is a measure of binding affinity in units of concentration.

Among the data in paper PMC6433934, “Preclinical Evaluation of Bispecific Adaptor Molecule Controlled Folate Receptor CAR-T Cell Therapy With Special Focus on Pediatric Malignancies” (Frontiers in Oncology, 2019) are Max. lysis, EC50 and Kd values, retold here.

The test system of assay [1] is HOS-FRα. Put plainly: EC17 dose response, co-culture with E2-CAR-T cells, LDH specific lysis. The format is cell-based, human. The text has this: (§1) To investigate EC17 CAM action in vitro, pure EGFRt-sorted CD4 and CD8 CAR-T cells were admixed in a 1:1 ratio and matching mock-transduced T cells were included per experimental design. Other than FR+/- isogenic pairs of AML and osteosarcoma cell lines, we added KB, MDA-MB-231 and OV90 to represent different histological tumor types and FR expression levels. All FR+ target cell lines were subjected to a direct ^3H-FA binding assay to quantitate the number of FR molecules bound/cell ([38]). Prior to co-culture experiments, cryopreserved CAR-T cells were allowed to recover for 2–3 days in T cell culture medium. All effector and target cells were pre-washed with FFRPMI to remove any exogenous FA that could compete against EC17. Short-term co-culture studies of ≤ 3 days were carried out in FFRPMI without adding any exogenous cytokines.
(§2) For an EC17 dose response study, FR+ cancer cell lines (KB, MDA-MB-231, HOS-FRα, THP1-FRβ, OV90) were co-cultured with EGFRt-sorted E2-CAR-T cells at an effector-to-target (E/T) ratio of 1:1 in the presence of EC17 ranging from 0.1 pM to 100 μM in 10-fold increments. After 24 h of co-culture, supernatants were harvested to determine target cell killing by Promega's CytoTox 96® LDH assay kit and expressed as specific lysis (%) normalized to basal levels in the absence of EC17. To study the kinetics of T cell activation and FR correlation in vitro, co-cultures were carried out in FR+/- cell lines at varying E/T ratios (1:27, 1:9, 1:3, 1:1, 3:1) in the continuous presence of 10 nM EC17. The kinetics of target cell killing (i.e., % specific lysis) were quantified after 16 and 48 h of co-culture and normalized to basal levels in the absence of EC17 at defined E/T ratios. Meanwhile, a portion of the supernatants was taken after 44 h of co-culture for measurement of IFNγ, IL-2, and TNFα. The LEGENDplex™ human Th1 cytokine panel (BioLegend, San Diego, CA) was used to determine CAR-T cell derived cytokines.

For assay [2], the system named is KB. The assay is described as above. The format is cell-based, human. Conditions: E/T 1:1, 24 h co-culture.
Source text: as §1, §2

The subject of assay [3] is MDA-MB-231. The assay is described as above. The format is cell-based, human. Conditions: MDA-MB-231, E/T 1:1, 24 h co-culture.
Source text: as §1, §2

In assay [4] the test system is THP1-FRβ. The assay is described as above. The format is cell-based, human.
Source text: as §1, §2

In assay [5] the target is T1, FRβ (Homo sapiens, UniProt P14207).
T1 construct: expressed in transfected cells; host or cells: Chinese hamster ovary cells (CHO-β)
Put plainly: 3H-EC17 cell-based radioligand binding, CHO-β cells. The following applies: ^3H-EC17, CHO-β cells, 2 h at 37°C, from molecules bound per cell. Here is the method:
Unless otherwise noted, all FR+ and FR-negative cancer cell lines were, respectively, maintained in RPMI-1640 medium (Gibco BRL) supplemented with 10% heat-inactivated fetal calf serum without (FFRPMI) or with (RPMI) 2.4 μM folic acid (FA). KB (FRα-expressing human cervical carcinoma with HeLa markers) and CHO-β (Chinese hamster ovary cells transfected with human FRβ) were used as the sources of FRα and FRβ for radioligand binding assays, respectively ([18]). MDA-MB-231 represents a FRα+ subclone of human TNBC cell line. For AML studies, the green fluorescent protein (GFP)-expressing isogenic pairs of FRβ-positive (THP1-FRβ) and FR-negative (THP1-FG12) cell lines were kindly provided by Dr. Manohar Ratnam (The University of Toledo, Toledo, OH). […]
The bispecific affinities of EC17 CAM were assessed using ^3H-EC17 in cell-based radioligand binding assays. […] The whole cell lysates were quantitated for the level of radioactivity and cellular protein content by standard Pierce BCA protein assay. The number of ^3H-EC17 molecules bound per cell was calculated to determine the dissociation constants (Kd) for FRα (KB) and FRβ (CHO-β), respectively. […] Afterwards, the cells were washed 4x with PBS, lysed with 0.1% Triton X-100 plus 0.1 N NaOH and counted in a scintillation counter. […]

In assay [6] the test system is E2-CAR-T cells. Put plainly: 3H-EC17 radioligand binding to effector cells. Also noted: species or system human. Conditions: ^3H-EC17, E2-CAR-T cells ~100% EGFRt+, 1:1 CD8/CD4, 1.5 h room temperature, estimated from specific binding curve. Here is the method: The bispecific affinities of EC17 CAM were assessed using ^3H-EC17 in cell-based radioligand binding assays. For binding to FR+ targets, KB and CHO-β cells were pre-seeded overnight in 24-well tissue culture plates and incubated with 0.1, 0.5, 1, 5, 10, 20, and 40 nM of ^3H-EC17 in FFRPMI for 2 h at 37°C. Afterwards, the cells were rinsed with phosphate-buffered saline (PBS, pH 7.4) and lysed with 1% sodium dodecyl sulfate. The whole cell lysates were quantitated for the level of radioactivity and cellular protein content by standard Pierce BCA protein assay. The number of ^3H-EC17 molecules bound per cell was calculated to determine the dissociation constants (Kd) for FRα (KB) and FRβ (CHO-β), respectively. […] Afterwards, the cells were washed 4x with PBS, lysed with 0.1% Triton X-100 plus 0.1 N NaOH and counted in a scintillation counter. The specific binding curve was generated by subtracting non-specific binding (^3H-EC17 plus “cold” EC17) from total binding (^3H-EC17) at each concentration of the radioligand.

Where [7] appears, read: Homo sapiens, EC17, E/T 1:1, 24 h co-culture, curve fitted up to 100 nM.
[8] abbreviates: Homo sapiens, curve fitted up to 100 nM.

T1 sequence (P14207 17-255): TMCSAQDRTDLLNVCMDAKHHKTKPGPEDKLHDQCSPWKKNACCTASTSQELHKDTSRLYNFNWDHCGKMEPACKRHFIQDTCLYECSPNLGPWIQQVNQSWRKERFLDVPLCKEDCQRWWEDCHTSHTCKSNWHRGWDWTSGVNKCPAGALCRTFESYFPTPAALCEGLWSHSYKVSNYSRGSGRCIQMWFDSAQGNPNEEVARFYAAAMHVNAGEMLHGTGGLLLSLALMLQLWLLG

Turning to `Nc1nc2ncc(CNc3ccc(C(=O)NC(CCC(=O)NCCNC(=S)Nc4ccc(-c5c6ccc(=O)cc-6oc6cc(O)ccc56)c(C(=O)O)c4)C(=O)O)cc3)nc2c(=O)[nH]1` (stereo not shown) [EC17, FA-(γ)-ethylenediamine-FITC], the Max. lysis in assay [1] (E/T 1:1, 24 h co-culture) was 18%; in assay [2] it was 11%; in assay [3], 45%; in assay [4] (E/T 1:1, 24 h co-culture), 27%. In addition, the EC50 in assay [1] (setting [7]) is 0.03 nM; in assay [2] (setting [8]), 5.3 pM; in assay [3] (setting [8]), 4.5 pM; in assay [4] (setting [7]) it was 0.015 nM. Further, the Kd in assay [5] is 0.8 nM; in assay [6] it was around 142 nM.
